Laboratory results reported in the NIST ThermoML archive (doi:10.1021/acs.jced.7b00773).
± gives the expanded uncertainty stated by the source.

Settings: Liquid; for viscosity: Concentric cylinders viscometry

CCCCCCn1cc[n+](C)c1.N#C[B-](C#N)(C#N)C#N [1-hexyl-3-methylimidazolium tetracyanoborate]
100 kPa
Settings | viscosity [mPa·s]
293.15 K | 63.69 ± 3
303.15 K | 38.1 ± 1.8
313.15 K | 24.73 ± 1.1
323.15 K | 17.12 ± 0.8
333.15 K | 12.48 ± 0.58
343.15 K | 9.467 ± 0.44
353.15 K | 7.423 ± 0.34
363.15 K | 5.982 ± 0.28
373.15 K | 4.929 ± 0.23

Settings | mass density [kg/m3]
293.15 K, 100 kPa, Vibrating tube method | 994.4 ± 2.2
303.15 K, 100 kPa, Vibrating tube method | 987.3 ± 2.2
311.8 K, 10000 kPa, Bellows volumetry | 986.2 ± 2.5
311.8 K, 20000 kPa, Bellows volumetry | 991.5 ± 2.5
311.8 K, 30000 kPa, Bellows volumetry | 996.5 ± 2.5
311.8 K, 40000 kPa, Bellows volumetry | 1001.3 ± 2.5
311.8 K, 50000 kPa, Bellows volumetry | 1005.9 ± 2.5
311.8 K, 60000 kPa, Bellows volumetry | 1010.3 ± 2.5
311.8 K, 70000 kPa, Bellows volumetry | 1014.5 ± 2.5
311.8 K, 80000 kPa, Bellows volumetry | 1018.6 ± 2.5
311.8 K, 90000 kPa, Bellows volumetry | 1022.6 ± 2.5
311.8 K, 100000 kPa, Bellows volumetry | 1026.5 ± 2.5
311.8 K, 110000 kPa, Bellows volumetry | 1030.2 ± 2.5
311.8 K, 120000 kPa, Bellows volumetry | 1034 ± 2.5
311.8 K, 130000 kPa, Bellows volumetry | 1037.6 ± 2.5
311.8 K, 140000 kPa, Bellows volumetry | 1041.1 ± 2.5
311.8 K, 150000 kPa, Bellows volumetry | 1044.6 ± 2.5
311.8 K, 160000 kPa, Bellows volumetry | 1047.9 ± 2.5
311.8 K, 170000 kPa, Bellows volumetry | 1051.2 ± 2.5
311.8 K, 180000 kPa, Bellows volumetry | 1054.4 ± 2.5
311.8 K, 190000 kPa, Bellows volumetry | 1057.6 ± 2.5
311.8 K, 200000 kPa, Bellows volumetry | 1060.7 ± 2.5
313.15 K, 100 kPa, Vibrating tube method | 980.1 ± 2.2
323.15 K, 100 kPa, Vibrating tube method | 973 ± 2.2
331.8 K, 10000 kPa, Bellows volumetry | 972.5 ± 2.5
331.8 K, 20000 kPa, Bellows volumetry | 978.1 ± 2.5
331.8 K, 30000 kPa, Bellows volumetry | 983.3 ± 2.5
331.8 K, 40000 kPa, Bellows volumetry | 988.5 ± 2.5
331.8 K, 50000 kPa, Bellows volumetry | 993.3 ± 2.5
331.8 K, 60000 kPa, Bellows volumetry | 998 ± 2.5
331.8 K, 70000 kPa, Bellows volumetry | 1002.3 ± 2.5
331.8 K, 80000 kPa, Bellows volumetry | 1006.7 ± 2.5
331.8 K, 90000 kPa, Bellows volumetry | 1010.8 ± 2.5
331.8 K, 100000 kPa, Bellows volumetry | 1014.9 ± 2.5
331.8 K, 110000 kPa, Bellows volumetry | 1018.8 ± 2.5
331.8 K, 120000 kPa, Bellows volumetry | 1022.6 ± 2.5
331.8 K, 130000 kPa, Bellows volumetry | 1026.4 ± 2.5
331.8 K, 140000 kPa, Bellows volumetry | 1030 ± 2.5
331.8 K, 150000 kPa, Bellows volumetry | 1033.5 ± 2.5
331.8 K, 160000 kPa, Bellows volumetry | 1037 ± 2.5
331.8 K, 170000 kPa, Bellows volumetry | 1040.4 ± 2.5
331.8 K, 180000 kPa, Bellows volumetry | 1043.7 ± 2.5
331.8 K, 190000 kPa, Bellows volumetry | 1047 ± 2.5
331.8 K, 200000 kPa, Bellows volumetry | 1050.2 ± 2.5
333.15 K, 100 kPa, Vibrating tube method | 966 ± 2.2
343.15 K, 100 kPa, Vibrating tube method | 959.1 ± 2.2
351.6 K, 10000 kPa, Bellows volumetry | 959.1 ± 2.5
351.6 K, 20000 kPa, Bellows volumetry | 965.1 ± 2.5
351.6 K, 30000 kPa, Bellows volumetry | 970.6 ± 2.5
351.6 K, 40000 kPa, Bellows volumetry | 976 ± 2.5
351.6 K, 50000 kPa, Bellows volumetry | 981 ± 2.5
351.6 K, 60000 kPa, Bellows volumetry | 985.9 ± 2.5
351.6 K, 70000 kPa, Bellows volumetry | 990.5 ± 2.5
351.6 K, 80000 kPa, Bellows volumetry | 995.1 ± 2.5
351.6 K, 90000 kPa, Bellows volumetry | 999.4 ± 2.5
351.6 K, 100000 kPa, Bellows volumetry | 1003.6 ± 2.5
351.6 K, 110000 kPa, Bellows volumetry | 1007.6 ± 2.5
351.6 K, 120000 kPa, Bellows volumetry | 1011.5 ± 2.5
351.6 K, 130000 kPa, Bellows volumetry | 1015.4 ± 2.5
351.6 K, 140000 kPa, Bellows volumetry | 1019.2 ± 2.5
351.6 K, 150000 kPa, Bellows volumetry | 1022.9 ± 2.5
351.6 K, 160000 kPa, Bellows volumetry | 1026.4 ± 2.5
351.6 K, 170000 kPa, Bellows volumetry | 1029.9 ± 2.5
351.6 K, 180000 kPa, Bellows volumetry | 1033.3 ± 2.5
351.6 K, 190000 kPa, Bellows volumetry | 1036.7 ± 2.5
351.6 K, 200000 kPa, Bellows volumetry | 1040 ± 2.5
353.15 K, 100 kPa, Vibrating tube method | 952.2 ± 2.2
363.15 K, 100 kPa, Vibrating tube method | 945.4 ± 2.2
371.8 K, 10000 kPa, Bellows volumetry | 945.8 ± 2.5
371.8 K, 20000 kPa, Bellows volumetry | 952 ± 2.5
371.8 K, 30000 kPa, Bellows volumetry | 957.9 ± 2.5
371.8 K, 40000 kPa, Bellows volumetry | 963.6 ± 2.5
371.8 K, 50000 kPa, Bellows volumetry | 969 ± 2.5
371.8 K, 60000 kPa, Bellows volumetry | 974 ± 2.5
371.8 K, 70000 kPa, Bellows volumetry | 978.8 ± 2.5
371.8 K, 80000 kPa, Bellows volumetry | 983.6 ± 2.5
371.8 K, 90000 kPa, Bellows volumetry | 988.1 ± 2.5
371.8 K, 100000 kPa, Bellows volumetry | 992.4 ± 2.5
371.8 K, 110000 kPa, Bellows volumetry | 996.7 ± 2.5
371.8 K, 120000 kPa, Bellows volumetry | 1000.8 ± 2.5
371.8 K, 130000 kPa, Bellows volumetry | 1004.8 ± 2.5
371.8 K, 140000 kPa, Bellows volumetry | 1008.7 ± 2.5
371.8 K, 150000 kPa, Bellows volumetry | 1012.5 ± 2.5
371.8 K, 160000 kPa, Bellows volumetry | 1016.1 ± 2.5
371.8 K, 170000 kPa, Bellows volumetry | 1019.7 ± 2.5
371.8 K, 180000 kPa, Bellows volumetry | 1023.3 ± 2.5
371.8 K, 190000 kPa, Bellows volumetry | 1026.7 ± 2.5
371.8 K, 200000 kPa, Bellows volumetry | 1030.1 ± 2.5
373.15 K, 100 kPa, Vibrating tube method | 938.7 ± 2.2
392 K, 10000 kPa, Bellows volumetry | 932.8 ± 2.5
392 K, 20000 kPa, Bellows volumetry | 939.4 ± 2.5
392 K, 30000 kPa, Bellows volumetry | 945.7 ± 2.5
392 K, 40000 kPa, Bellows volumetry | 951.6 ± 2.5
392 K, 50000 kPa, Bellows volumetry | 957.2 ± 2.5
392 K, 60000 kPa, Bellows volumetry | 962.5 ± 2.5
392 K, 70000 kPa, Bellows volumetry | 967.6 ± 2.5
392 K, 80000 kPa, Bellows volumetry | 972.6 ± 2.5
392 K, 90000 kPa, Bellows volumetry | 977.3 ± 2.5
392 K, 100000 kPa, Bellows volumetry | 981.8 ± 2.5
392 K, 110000 kPa, Bellows volumetry | 986.3 ± 2.5
392 K, 120000 kPa, Bellows volumetry | 990.5 ± 2.5
392 K, 130000 kPa, Bellows volumetry | 994.6 ± 2.5
392 K, 140000 kPa, Bellows volumetry | 998.6 ± 2.5
392 K, 150000 kPa, Bellows volumetry | 1002.5 ± 2.5
392 K, 160000 kPa, Bellows volumetry | 1006.3 ± 2.5
392 K, 170000 kPa, Bellows volumetry | 1010 ± 2.5
392 K, 180000 kPa, Bellows volumetry | 1013.6 ± 2.5
392 K, 190000 kPa, Bellows volumetry | 1017.2 ± 2.5
392 K, 200000 kPa, Bellows volumetry | 1020.6 ± 2.5
412.1 K, 10000 kPa, Bellows volumetry | 920.1 ± 2.5
412.1 K, 20000 kPa, Bellows volumetry | 927 ± 2.5
412.1 K, 30000 kPa, Bellows volumetry | 933.7 ± 2.5
412.1 K, 40000 kPa, Bellows volumetry | 939.9 ± 2.5
412.1 K, 50000 kPa, Bellows volumetry | 945.8 ± 2.5
412.1 K, 60000 kPa, Bellows volumetry | 951.4 ± 2.5
412.1 K, 70000 kPa, Bellows volumetry | 956.7 ± 2.5
412.1 K, 80000 kPa, Bellows volumetry | 961.8 ± 2.5
412.1 K, 90000 kPa, Bellows volumetry | 966.8 ± 2.5
412.1 K, 100000 kPa, Bellows volumetry | 971.4 ± 2.5
412.1 K, 110000 kPa, Bellows volumetry | 976 ± 2.5
412.1 K, 120000 kPa, Bellows volumetry | 980.4 ± 2.5
412.1 K, 130000 kPa, Bellows volumetry | 984.7 ± 2.5
412.1 K, 140000 kPa, Bellows volumetry | 988.8 ± 2.5
412.1 K, 150000 kPa, Bellows volumetry | 992.8 ± 2.5
412.1 K, 160000 kPa, Bellows volumetry | 996.7 ± 2.5
412.1 K, 170000 kPa, Bellows volumetry | 1000.6 ± 2.5
412.1 K, 180000 kPa, Bellows volumetry | 1004.3 ± 2.5
412.1 K, 190000 kPa, Bellows volumetry | 1007.9 ± 2.5
412.1 K, 200000 kPa, Bellows volumetry | 1011.5 ± 2.5
